Assay [1] relates to cJun bZIP / TRE sites in TRE-mDHFR gene. The experiment in a line: TBS liquid culture growth competition HingeW vs A-FosW. It counts as cell-based, human cJun, expressed in E. coli. As to conditions: equal numbers of cells with A-FosW or HingeW, selective M9 media, after three passages, DNA sequencing. The procedure: During the TBS library screening process, E. coli were transformed with the pooled DNA plasmid library such that each cell expressed a given member. Cells were plated onto M9 selective media and incubated until colonies expressing TBS active library members had formed. These colonies were pooled, and repeated liquid culture passages were undertaken under selective conditions to compete for library members against each other, enriching for the most TBS active sequences. At each stage of the assay, DNA sequencing was used to monitor the presence of TBS active sequences in the culture and inform on which residues were being selected at each position until one discrete DNA sequence was detected in the culture, referred to as HingeW (Figure 4). The residues selected in the winning HingeW peptide were universally found to be either acidic (D/E) or hydrophobic (V). Six of nine residues selected deviated from the parental A-FosW sequence with both V (E-to-V at e4 and c4, Q-to-V at f4) and E (L-to-E at a4, Q-to-E at e5, A-to-E at f5) newly selected in three positions. […]
increased to the optimum 4 µM in subsequent passages. […] This allows the occurrence of library members to be monitored as winner sequences are selected for. […]

The test system of assay [2] is TRE DNA. The experiment in a line: EMSA, binding of cJun bZIP to TRE DNA. The settings on record: cJun bZIP 20 μM, TRE DNA 2 μM, relative to DNA alone. The procedure: To provide further evidence of functional antagonism, an electrophoretic mobility shift assay (EMSA) was employed. […] No bound cJun/TRE DNA band was observed as the overall charge of this complex prohibited entry into the gel. Antagonism was therefore best observed by monitoring the intensity of the free DNA band.
Isothermal Titration Calorimetry (ITC): Peptides were studied in an ITC buffer consisting of 10 mM potassium phosphate, 150 mM potassium fluoride and 5 mM TCEP at pH 7.4. Using a MicroCal VP-ITC instrument (Malvern), 10 µL injections of antagonist peptide (HingeW or A-FosW) at 10 µM were injected into the cell containing cJun at 1 µM.
MicroCal Origin software was used to record and analyse the heat change upon addition.
Control experiments involved the injection of the antagonist peptide sample into the cell containing ITC buffer alone to determine the heat of dilution which was subtracted. The resulting binding data were fit to a one site binding model to extract the enthalpy change of binding (ΔH) and the equilibrium binding constant (K D), from which the free energy change of binding (ΔG) and the entropy change of binding (ΔS) was calculated (41).
Thermodynamic parameters are presented as an average of two independent experiments with errors given as one standard deviation. […]

For “LEQRAEELARENEELEKEAEELEQELDELQAEIEQLEERNYALRKEIEDLQKQLEKL [A-FosW, N-terminal AS and C-terminal GAP caps, 6xHis-tagged]”, the “outcome of direct competition in liquid culture” value in assay [1] is given as “outcompeted”.

As for “cJun bZIP: human cJun bZIP domain, Arg252 to Leu308 (target protein)”, in assay [2], the “free DNA band intensity on adding cJun bZIP” value is “significant reduction in the free DNA band intensity”.

For the origin of these results see PMC9088798, “An Approach to Derive Functional Peptide Inhibitors of Transcription Factor Activity” (JACS Au, 2022).
